Laboratory results taken from patent US4920121A.
pKi: −log10 of the molar value. Like-named read-outs stand apart in the source and are kept apart here.

Tests used:
[1] = system: male Charles River, CF-1 mice; assay: isolation-induced aggression test; details: for total fighting time (TFT): 60 minutes before testing, 3 minute test, vehicle controls 15.7 seconds
Method: The isolation-induced aggression test was conducted with male mice in an adaptation of the method of DaVanzo et al., Psychopharmacology, (Berlin) 9 210 (1966) whereby male Charles River, CF-1 mice, 16-20 g in weight were individually housed for a period of three weeks and then trained to attack an intruder mouse which had been group housed (10/cage). […] The total fighting time (TFT) in seconds was recorded during a 3 minute test period upon introduction of the intruder mouse into the cage of the aggressive mouse.

[2] = system: male, Charles River mice, CF-1; assay: rotorod motor coordination (RMC) test
Method: In order to differentiate between specific antiagressive effects and an inhibition of fighting due to debilitation, rotorod motor coordination (RMC) tests were conducted according to an adaptation of the method of Dunham et al., J. Am. Pharm. Assc. […] The amount of time spent on the rod (maximum of 60 seconds) was recorded and compared with the vehicle treated control animals. […] In comparison, the minimum effective dose (mg/kg i.p.) of buspirone in the isolation induced aggression study was 10.0 mg/kg and greater than 60.0 mg/kg in producing ataxia as evaluated by the rotorod motor coordination study.

[3] = biological target: T1, post synaptic 5-HT1A receptor (Rattus norvegicus, UniProt P19327); details: for in vivo postsynaptic 5-HT1A activity profile in serotonin syndrome tests: rats, i.p.
T1 sequence (P19327 1-422): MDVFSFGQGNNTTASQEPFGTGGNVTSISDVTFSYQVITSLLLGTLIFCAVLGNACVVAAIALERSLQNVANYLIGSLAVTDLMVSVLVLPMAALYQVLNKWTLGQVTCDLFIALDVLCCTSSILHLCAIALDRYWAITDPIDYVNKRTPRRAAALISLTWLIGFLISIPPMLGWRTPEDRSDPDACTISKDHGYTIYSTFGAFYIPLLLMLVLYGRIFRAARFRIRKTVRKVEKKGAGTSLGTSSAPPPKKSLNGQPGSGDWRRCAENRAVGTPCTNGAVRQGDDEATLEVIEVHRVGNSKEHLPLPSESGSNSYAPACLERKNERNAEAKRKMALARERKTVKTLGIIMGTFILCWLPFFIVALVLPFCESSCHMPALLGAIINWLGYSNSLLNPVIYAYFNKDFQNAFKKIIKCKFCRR
Method: (§1) Serotonin syndrome tests were conducted according to the method of Smith et al., Pharmacol. Biochem. and Behav., 24 1513 (1986).
(§2) Male Sprague-Dawley CD rats (Charles River) weighing 200-300 g were housed 6/cage with food and water available ad libitum. Animals were allowed to acclimate to the animal colony for at least 1 week prior to testing. Rats were placed individually into plexiglas® observation cages with a layer of bedding covering the bottom. […] During the 15 minute pretreatment, subjects were scored for the presence of the 5-HT syndrome (agonist activity). After the 8-OH-DPAT injection, all subjects were scored for an additional 15 minutes to identify antagonist activity. Scoring the 5-HT syndrome consisted of rating the following behaviors: (1) forepaw treading, (2) head-weaving, (3) tremor, (4) hindlimb abduction, (5) flattened body posture, and (6 ) Straub tail on a 4-point ranked intensity scale with a maximum score of 18. Results were expressed as mean total score (+/-SEM) for induction of syndrome and for antagonism of syndrome.

[4] = system: male CD rats (Charles River); assay: discrete trial conditioned avoidance responding (CAR) test; type: in vivo; details: Rattus norvegicus, ip, thirty minutes before the test, instant test procedure, read-out: ED50 (reduction in avoidance responding)
Method: The conditioned avoidance responding (CAR) test was conducted in male CD rats (Charles River) maintained at approximately 400-450 g body weight. Rats trained previously were placed in Plexiglas® experimental chambers equipped with a response lever, house light and sonalert. The steel grid chamber floor is wired for presentation of an electric shock. Each trial consists of a fifteen second warning tone conditioned stimulus, continuing for an additional fifteen seconds accompanied by electric shock (unconditioned stimulus). The rat can terminate a trial at any point by depressing the response lever. A response during the initial fifteen second warning tone ends the trial before shock delivery and is considered an avoidance response. A response occurring during shock delivery is an escape response. […] The ED50 of the test compound is calculated from the percentage reduction in avoidance responding and represents that dose at which only half the responses are made.

[5] = system: male CD rats (Charles River); details: i.p., reported by Martin et al. 1988; cited from earlier work
5-HT1A receptors = details: Martin et al., European J. of Pharmacol. 156 223 (1988); cited from earlier work
[6] = biological target: T1, post synaptic 5-HT1A receptor; assay: in vivo; details: ip
Method: as §1, §2

SMILES | total fighting time (TFT) ([1]; 0.5 mg/kg i.p.) [s] | total fighting time (TFT) ([1]; 1.0 mg/kg i.p.) [s] | total fighting time (TFT) ([1]; 3.0 mg/kg i.p.) [s] | dosage at which mice became debilitated (rotorod) ([2]; intraperitoneally 60 minutes before rotorod) [mg/kg] | debilitating dose relative to dose that antagonized aggressive activity ([2]; rotorod vs isolation-induced aggression, mice i.p.) | antagonism of serotonin syndrome induced by 8-OH-DPAT ([3]; 33 mg/kg i.p., 15 minutes prior to 5.6 mg/kg i.p. 8-OH-DPAT) | induction of 5-HT syndrome (agonist activity) ([3]; 10 and 30 mg/kg i.p., scored during 15 minute pretreatment) | in vivo postsynaptic 5-HT1A activity profile in serotonin syndrome tests [3] | ED50 [4] [mg/kg] | ED50 (reduction in avoidance responding) [5] [mg/kg] | pKi (5-HT1A receptors) | minimal effective dose ([1]; Mus musculus, ip, 1 h, read-out: minimum effective dose in the isolation induced aggression study) [mg/kg] | ED50 ([6]; read-out: agonist ED50) [mg/kg] | ED50 ([6]; read-out: antagonist ED50) [mg/kg] | minimum effective dose in producing ataxia (rotorod motor coordination) ([2]; mouse, in vivo, ip)
COc1ccccc1N1CCNCC1 | 5.1 | 0.7 | 0.1 | ≥ 30.0 | at least ten times the dose that antagonized aggressive activity | antagonized the serotonin syndrome | displayed agonist activity | weak partial agonist activity | 10.6 | 5.6 | 8.02 |  |  |  | 
O=C1CC2(CCCC2)CC(=O)N1CCCCN1CCN(c2ncccn2)CC1 [buspirone, reference compound] |  |  |  |  |  |  |  | partial agonist profile |  |  |  | 10 | 7 | 4 | greater than 60.0 mg/kg
